Test results taken from patent US6271342A, “Sugar-modified cytostatics” (Bayer Aktiengesellschaft, priority 1995, dated 2001).
Counter-ions that a name gives are not always drawn.

Legend:
Experiment in all cases: Growth inhibition test (MTT) for cytotoxic properties
Conditions in all cases: Table 1b
[1] = test system: B 16 F 10; type: cell-based, mouse
Protocol: Growth Inhibition Test for Determination of the Cytotoxic Properties of Glycoconjugates of Batracyline and of Quinolone-a
The human colon cell lines SW 480 and HT 29 (ATCC no. CCL 228 and HBT-38) and the mouse melanoma cell line B 16 F 10 were cultured in Roux dishes in RPMI 1640 medium with addition of 10% FCS. The cultures were then trypsinized and taken up in RPMI plus 10% FCS to a cell count of 50,000 cells/ml. 100 μl of cell suspension/well were introduced into a 96 microwell plate and incubated for 1 day at 37° C. in a CO2 incubating cabinet. A further 100 μl of RPMI medium and 1 μl of dimethyl sulphoxide with the test substances were then added. The growth was checked after day 3 and day 6. 40 μl of MTT solution (3-(4,5-dimethylthiazol-2-yl)-2,5-diphenyltetrazoline bromide) with an initial concentration of 5 mg/ml of H2 O were added to each microwave. The plate was incubated for 5 hours in a CO2 incubating cabinet at 37° C. The medium was then sucked off and 100 μl of i-propanol/well were added. After shaking for 30 minutes with 100 μl of H2 O, the extinction was measured at 540 nm with a Titertek Multiskan MCC/340 (Flow).

[2] = test system: SW 480; type: cell-based, human
How it was run: (§1)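 SW 480 and HT 29 cells in RPMI 1640 with 10% FCS were seeded at 50,000 cells/ml, grown 1 day at 37 °C, then exposed to compound added in DMSO. MTT (5 mg/ml stock) was applied after day 3 and day 6 for 5 h, and formazan absorbance was read at 540 nm. IC50 values reported.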

[3] = test system: HT 29; type: cell-based, human
How it was run: as §1

`CO[C@H]1[C@H](O)[C@H](Oc2ccc(NC(=S)NCCCC[C@@H](NC(=S)Nc3ccc(O[C@@H]4O[C@@H](C)[C@@H](O)[C@@H](OC)[C@@H]4O)cc3)C(=O)NC3C=CCC4CN(c5c(F)cc6c(=O)c(C(=O)O)cn(C7CC7)c6c5Cl)CC43)cc2)O[C@@H](C)[C@H]1O` (stereo partly drawn) [Example 11.10, N-{N^α,N^ε -Bis-[O-(3-O-methyl-α-L-fucosyl)-4hydroxy-phenylamino-thiocarbonyl]-D-lysyl}-quinolone-a] showed an IC50 [1] of 2 µM, an IC50 [2] of 8 µM and an IC50 [3] of 20 µM.
Compound `CO[C@H]1[C@@H](O)[C@@H](CO)O[C@@H](Oc2ccc(NC(=S)NCCCC[C@@H](NC(=S)Nc3ccc(O[C@@H]4O[C@H](CO)[C@H](O)[C@H](OC)[C@H]4O)cc3)C(=O)NC3C=CCC4CN(c5c(F)cc6c(=O)c(C(=O)O)cn(C7CC7)c6c5Cl)CC43)cc2)[C@@H]1O` (stereo partly drawn) [Example 11.16, N-{N^α,N^ε -Bis-[O-(3-O-methyl-β-D-galactopyranosyl)-4-hydroxy-phenylamino-thiocarbonyl]-D-lysyl}-quinolone, sodium salt] has an IC50 [1] of 1.5 µM, an IC50 [2] of 10 µM and an IC50 [3] of 10 µM.
For `CO[C@@H]1[C@H](O)[C@@H](Oc2ccc(NC(=S)NCCCC[C@@H](NC(=S)Nc3ccc(O[C@H]4O[C@H](CO)[C@@H](O)[C@H](OC)[C@@H]4O)cc3)C(=O)NC3C=CCC4CN(c5c(F)cc6c(=O)c(C(=O)O)cn(C7CC7)c6c5Cl)CC43)cc2)O[C@H](CO)[C@H]1O` (stereo partly drawn) [Example 11.17, N-{N^α,N^ε -Bis-[O-(3-O-methyl-α-D-mannopyranosyl)-4-hydroxy-phenylamino-thiocarbonyl]-D-lysyl}-quinolone-a, sodium salt], the IC50 [1] was 8 µM, the IC50 [2] was 75 µM and the IC50 [3] was 75 µM.
`CO[C@H]1[C@@H](O)[C@@H](CO)O[C@@H](O[C@H]2[C@H](O)[C@@H](O)[C@H](Oc3ccc(NC(=S)NCCCC[C@@H](NC(=S)Nc4ccc(O[C@@H]5O[C@H](CO)[C@@H](O[C@@H]6O[C@H](CO)[C@H](O)[C@H](OC)[C@H]6O)[C@H](O)[C@H]5O)cc4)C(=O)NC4C=CCC5CN(c6c(F)cc7c(=O)c(C(=O)O)cn(C8CC8)c7c6Cl)CC54)cc3)O[C@@H]2CO)[C@@H]1O` (stereo partly drawn) [Example 11.18, N-{N^α,N^ε -Bis-[O-(4-O-(3'-O-methyl-β-D-galactopyranosyl)-β-D-glucopyranosyl)-4-hydroxy-phenylamino-thiocarbonyl]-D-lysyl}-quinolone-a, sodium salt] showed an IC50 [1] of 0.5 µM, an IC50 [2] of 4.5 µM and an IC50 [3] of 3.5 µM.
In the case of `CC(NC(=O)C(CCCCN)NC(=S)Nc1ccc(OC2OC(C)C(O)C(OCC(=O)O)C2O)cc1)C(=O)NC1C=CCC2CN(c3c(F)cc4c(=O)c(C(=O)O)cn(C5CC5)c4c3Cl)CC21` [Example 12.7, N-{N^α -[O-(3-O-Carboxymethyl-β-L-fucosyl)-4-hydroxy-phenylamino-thiocarbonyl]-lysyl-D-alanyl}-quinolone-a], the IC50 [1] is reported as 20 µM, the IC50 [2] is reported as 60 µM and the IC50 [3] is reported as > 250 µM.
For `COC[C@H]1O[C@@H](Oc2ccc(NC(=S)N[C@@H](CCCCN)C(=O)NC3C=CCC4CN(c5c(F)cc6c(=O)c(C(=O)O)cn(C7CC7)c6c5Cl)CC43)cc2)[C@H](O)[C@@H](OC)[C@H]1O` (stereo partly drawn) [Example 12.9, N-{N^α -[O-(3,6-Di-O-methyl-β-D-galactopyranosyl)-4-hydroxy-phenylamino-thiocarbonyl]-lysyl}-quinolone-a, hydrochloride], the IC50 [1] was 2 µM, the IC50 [2] was 4 µM and the IC50 [3] was 8 µM.
In the case of `CO[C@@H]1[C@H](O)[C@@H](Oc2ccc(NC(=S)N[C@@H](CCCCN)C(=O)NC3C=CCC4CN(c5c(F)cc6c(=O)c(C(=O)O)cn(C7CC7)c6c5Cl)CC43)cc2)O[C@H](CO)[C@H]1O` (stereo partly drawn) [Example 12.10, N-{N^α -[O-(3-O-Methyl-α-D-mannopyranosyl)-4-hydroxy-phenylamino-thio-carbonyl]-lysyl}-quinolone-a, hydrochloride], the IC50 [1] is reported as 4 µM, the IC50 [2] is reported as 15 µM and the IC50 [3] is reported as 15 µM.
`COC1C(O)C(CO)OC(OC2C(CO)OC(Oc3ccc(NC(=S)NC(CCCCN)C(=O)NC4C=CCC5CN(c6c(F)cc7c(=O)c(C(=O)O)cn(C8CC8)c7c6Cl)CC54)cc3)C(O)C2O)C1O` [Example 12.11, N-{N^α -[O-(4-O-(3'-O-Methyl-β-D-galactopyranosyl)-β-D-glucopyranosyl)-4-hydroxy-phenylamino-thiocarbonyl]-lysyl}-quinolone-a hydrochloride] was tested, and the IC50 [1] was 0.5 µM, the IC50 [2] was 2 µM and the IC50 [3] was 2 µM.
Work on `COC1C(O)C(C)OC(Oc2ccc(NC(=S)NC3C=CCC4CN(c5c(F)cc6c(=O)c(C(=O)O)cn(C7CC7)c6c5Cl)CC43)cc2)C1O` [Example 12.13, N-[O-(3-O-Methyl-β-L-fucosyl)-4-hydroxy-phenylamino-thiocarbonyl]-quin olone-a] yielded an IC50 [1] of 1 µM, an IC50 [2] of 35 µM and an IC50 [3] of 100 µM.
`COC1C(O)C(C)OC(Oc2ccc(NC(=S)NC(CN)C(=O)NC3C=CCC4CN(c5c(F)cc6c(=O)c(C(=O)O)cn(C7CC7)c6c5Cl)CC43)cc2)C1O` [Example 12.15, N-{N^α -[O-(3-O-Methyl-β-L-fucosyl)-4-hydroxy-phenylamino-thiocarbonyl]-diamino-propionoyl)-quinolone-a, hydrochloride] showed an IC50 [1] of 0.1 µM, an IC50 [2] of 0.3 µM and an IC50 [3] of 1 µM.
`COC1C(O)C(C)OC(Oc2ccc(NC(=S)NC(C)C(=O)NC(Cc3ccc(N(CCCl)CCCl)cc3)C(=O)O)cc2)C1O` (stereo not drawn) [Example 16.1] gave an IC50 [1] of 200 µM, an IC50 [2] of 50 µM and an IC50 [3] of 100 µM.
With `COC1C(O)C(C)OC(Oc2ccc(NC(=S)NC(C)C(=O)NC(C)C(=O)NC(Cc3ccc(N(CCCl)CCCl)cc3)C(=O)O)cc2)C1O` [Example 16.2, N-{N'-[O-(3-O-Methyl-β-L-fucopyranosyl)-4-hydroxy-phenylamino-thiocarbonyl]-alanyl-alanyl}-melphalan] the IC50 [1] was 80 µM, the IC50 [2] was 50 µM and the IC50 [3] was 60 µM.
`COc1cccc2c1C(=O)c1c(O)c3c(c(O)c1C2=O)CC(O)(C(=O)CO)CC3OC1CC(NC(=O)C(C)NC(=O)C(C)NC(=S)Nc2ccc(OC3OC(C)C(O)C(OC)C3O)cc2)C(O)C(C)O1` [Example 17.1, N-{N'-[O-(3--Methyl-β-L-fucopyranosyl)-4-hydroxy-phenylamino-thiocarbonyl]-alanyl-alanyl}-doxorubicin] showed an IC50 [1] of 5 µM, an IC50 [2] of 10 µM and an IC50 [3] of 5 µM.
With `COc1cccc2c1C(=O)c1c(O)c3c(c(O)c1C2=O)CC(O)(C(=O)CO)CC3OC1CC(NC(=O)C(C)NC(=O)C(CCCCNC(=S)Nc2ccc(OC3OC(C)C(O)C(OC)C3O)cc2)NC(=S)Nc2ccc(OC3OC(C)C(O)C(OC)C3O)cc2)C(O)C(C)O1` [Example 17.2, N-{N^α,N^ε -Bis-[O-(3-O-methyl-β-L-fuccopyranosyl)-4-hydroxy-phenylamino-thiocarbonyl]-D-lysyl-alanyl}-doxorubicin] the IC50 [1] was 4 µM, the IC50 [2] was 4 µM and the IC50 [3] was 4 µM.
`CCC1(OC(=O)C(C)NC(=O)C(CCCCNC(=S)Nc2ccc(OC3OC(C)C(O)C(OC)C3O)cc2)NC(=S)Nc2ccc(OC3OC(C)C(O)C(OC)C3O)cc2)C(=O)OCc2c1cc1n(c2=O)Cc2cc3ccccc3nc2-1` [Example 18.1, 20-O-{N^α,N^ε -Bis-[O-(3-O-methyl-β-L-fucopyranosyl)-4-hydroxy-phenylamino-thiocarbonyl]-lysyl-alanyl}-camptothecin] gave an IC50 [1] of 0.2 µM, an IC50 [2] of 0.03 µM and an IC50 [3] of 0.01 µM.
